Experimental data taken from patent US20200329698A1, “COMPOSITIONS FOR ORGAN GRAFT PRESERVATION AND METHODS OF USE” (Nobilis Therapeutics, Inc., priority 2019, published 2020).

Test system: Lewis rat lung grafts extracted after cardiac death
Method: Inbred adult male Lewis rats (LEW, RT1^1) weighing 225-250 g were purchased from Harlan, UK and bred in temperature- and humidity-controlled cages in a specific pathogen-free facility at the Chelsea-Westminster Campus, Imperial College London. All animal procedures were carried out in accordance with the United Kingdom Animals (Scientific Procedures) Act of 1986. For cardiac arrest model (DCD donor) in anaesthetized rats, anticoagulation was accomplished by injecting 250 U Heparin in 1 ml saline via the penile vein. Five minutes after heparinization, a laparotomy was performed through a midline incision. A thoracotomy was performed followed by induction of cardiac arrest by external compression of the heart for 5 min. After induction of cardiac arrest, the aorta was closed using a vascular clamp rostral from the heart. The thoracotomy wound was covered with gauze and kept moist with 0.9% NaCl. After 40 minutes in DCD donors, the entire graft, lung or kidney, in the donor was isolated and excised. Lung grafts were flushed through the main pulmonary artery and stored at 4° C. for 16 hours with either control UW solution or UW with Dex (0.1 nM) solution. Lung or kidney grafts were fixed in 4% parafamydehyde and paraffin. Sections of 5-μm thickness were taken from the kidney specimens and haematoxylin & eosin (H&E) staining was carried out. Lung cell morphology in each graft (10 fields in the cortex at ×20 magnifications) was evaluated by an observer blinded to the treatment using an OLYMPUS™ (Watford, UK) BX4 microscope under constant exposure level. The score for each field was calculated from the sum score of 10 areas chosen at a random. For the lung sections, the injury was categorised into Grade 0: normal appearance, negligible damage; Grade 1: mild moderate interstitial congestion and neutrophil leukocyte infiltrations; Grade 2: perivascular oedema formation, partial destruction of pulmonary architecture and moderate cell infiltration; Grade 3: moderate lung alveolar damage and intensive cell infiltration; Grade 4: severe cell infiltration and severe destruction of the pulmonary architecture. For in vivo fluorescence or DAB staining, 25-μm frozen lung sections were incubated with rabbit anti-Rip1 (1:200, SANTA CRUZ BIOTECHNOLOGY®), rabbit anti-Rip3 (1:200, SANTA CRUZ BIOTECHNOLOGY®), mouse anti-HMGB-1 (1:200, Abcam), Goat anti-TLR-4 (1:200, SANTA CRUZ BIOTECHNOLOGY®), rabbit anti-Nrf-2 (1:200, SANTA CRUZ BIOTECHNOLOGY®), mouse anti-SOD-1 (1:200, Abcam), mouse anti-NQO-1 (1:200 Abcam), rabbit anti-3-nitrotyrosine (1:200, Abcam) and rabbit anti-4-hydroxynonenal (1:200, Abcam) at 4° C. overnight. After washing with PBST, the slides were incubated with fluorochrome-conjugated secondary antibodies (MILLIPORE™, UK). For double-labelled immunofluorescence, lung samples were incubated with the first primary antibody overnight, followed by the first secondary antibody, and then the second primary antibody and the second secondary antibody. The slides were counterstained with nuclear dye DAPI and mounted with […]® Mounting Medium (Vector lab, USA). Sections were examined using an OLYMPUS™ (Watford, UK) BX4 microscope under constant exposure level. Immunofluorescence was quantified using ImageJ (National Institutes of Health, Maryland, USA) and the background was subtracted. Ten representative regions per section (in vivo) or field (in vitro) were randomly selected by an assessor blinded to the treatment groups. Values were then calculated as percentages of the mean value for naïve controls and expressed as percentage fluorescence intensity. Lung alveolar cell death was detected by the in situ TUNEL assay (MILLIPORE™) according to the manufacturer's instructions. TUNEL nuclei were visualized by green FITC fluorescence. Tumor necrosis factor-α (TNF-α) in the culture medium were detected by ELISA (Human TNF-α ELISA kits, INVITROGEN®, UK). Rat lung tissue and serum TNF-α were measured by ELISA (Rat TNF-α ELISA kits, INVITROGEN®, UK). […]

[1] = Dex 0.1 nM in UW at 4° C., CI 16 hr, vs vehicle
[2] = Dex-saturated UW, CI 16 h, p<0.001
[3] = Dex-saturated UW, CI 16 h, p<0.05

Cc1cccc([C@H](C)c2cnc[nH]2)c1C [Dexmedetomidine]
HMGB-1 release [1]: reduction
TLR-4 activation (fluorescent intensity) [1]: reduction
cell death (TUNEL staining) [1]: reduced cell death
concentration of HMGB-1 in lung graft tissue (ELISA) [1]: significantly reduced
concentration of IL-1β in lung graft tissue (ELISA) [1]: significantly reduced
concentration of TNF-α in lung graft tissue (ELISA) [1]: significantly reduced
expression of necroptosis marker RIP1 (fluorescent intensity) [1]: significantly reduced
expression of necroptosis marker RIPS (RIPK3 fluorescent intensity) [1]: significantly reduced
lung morphology (H&E, lung injury scoring) [1]: marked improvement in morphology
expression of 3-nitrotyrosine (fluorescent intensity) (Dex-saturated UW, CI 16 h, vs control group, p<0.001): significant reduction
expression of 4-hydroxynonenal (fluorescent intensity) (Dex-saturated UW, CI 16 h, vs control group, p<0.05): significant reduction
expression of Nrf-2 (fluorescent intensity) [2]: significant increase
expression of SOD-1 (fluorescent intensity) [2]: significant increase
lung tissue GSH/GSSG ratio [2]: significant increase
lung tissue GSSG level (Dex-saturated UW, CI 16 h, p<0.01): significant decrease
expression of NQO-1 (fluorescent intensity) [3]: significant increase
lung tissue GSH level [3]: significant increase
